According to PubChem BioAssay AID248 (DTP/NCI, 2004):
Toxic doses and inconclusive results are not listed.

Test system: L1210 leukemia ip in BDF1 mice, survival T/C
Test: NCI In Vivo Anticancer Drug Screen. Data for tumor model L1210 Leukemia (intraperitoneal) in B6D2F1 (BDF1) mice
Conditions: higher = longer survival
Outline: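 Each compound was tested against a transplantable tumor grown in mice. The endpoint was survival, with treated animals benchmarked against vehicle controls as a simple ratio.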

[1] = endpoint: mean survival time, dose: 100.0 mg/kg/injection, schedule: Q04DX003 (ip), vehicle: saline with Tween-80
[2] = endpoint: mean survival time, dose: 200.0 mg/kg/injection, schedule: Q04DX003 (ip), vehicle: saline with Tween-80
[3] = endpoint: mean survival time, dose: 400.0 mg/kg/injection, schedule: Q04DX003 (ip), vehicle: saline with Tween-80
[4] = endpoint: mean survival time, dose: 100.0 mg/kg/injection, schedule: Q01DX001 (ip), vehicle: saline
[5] = endpoint: mean survival time, dose: 200.0 mg/kg/injection, schedule: Q01DX001 (ip), vehicle: saline
[6] = endpoint: mean survival time, dose: 400.0 mg/kg/injection, schedule: Q01DX001 (ip), vehicle: saline
[7] = endpoint: mean survival time, dose: 25.0 mg/kg/injection, schedule: Q04DX003 (ip), vehicle: saline
[8] = endpoint: mean survival time, dose: 50.0 mg/kg/injection, schedule: Q04DX003 (ip), vehicle: saline
[9] = endpoint: mean survival time, dose: 100.0 mg/kg/injection, schedule: Q04DX003 (ip), vehicle: saline
[10] = endpoint: mean survival time, dose: 400.0 mg/kg/injection, schedule: Q04DX003 (ip), vehicle: saline
[11] = endpoint: mean survival time, dose: 50.0 mg/kg/injection, schedule: Q01DX001 (ip), vehicle: saline
[12] = endpoint: mean survival time, dose: 200.0 mg/kg/injection, schedule: Q04DX003 (ip), vehicle: saline

With `Cc1cc(NC(=O)Nc2ccccc2C)no1` the T/C (endpoint: mean survival time, dose: 100.0 mg/kg/injection, schedule: Q01DX009 (ip), vehicle: saline with Tween-80) was 89 % of control, the T/C [1] was 97 % of control and the T/C (endpoint: mean survival time, dose: 200.0 mg/kg/injection, schedule: Q01DX009 (ip), vehicle: saline with Tween-80) was 93 % of control. For the same compound, the T/C [2] was 101 % of control, the T/C (endpoint: mean survival time, dose: 400.0 mg/kg/injection, schedule: Q01DX009 (ip), vehicle: saline with Tween-80) was 91 % of control and the T/C [3] was 97 % of control.
With `CCCCCCCCCCCCCCCC(=O)Nc1ccc(C(C)=O)cc1` the T/C (endpoint: mean survival time, dose: 100.0 mg/kg/injection, schedule: Q04DX003 (ip), vehicle: Klucel (hydroxypropylcellulose) (HPC)) was 91 % of control, the T/C (endpoint: mean survival time, dose: 200.0 mg/kg/injection, schedule: Q04DX003 (ip), vehicle: Klucel (hydroxypropylcellulose) (HPC)) was 88 % of control and the T/C (endpoint: mean survival time, dose: 400.0 mg/kg/injection, schedule: Q04DX003 (ip), vehicle: Klucel (hydroxypropylcellulose) (HPC)) was 95 % of control.
With `Cc1ccc(C(C)(N=[N+]=[N-])c2ccccc2)cc1C` (centres undefined) the T/C [4] was 93 % of control, the T/C [5] was 96 % of control and the T/C [6] was 109 % of control.
For `C[C@@H](CN1CC(=O)NC(=O)C1)N1CC(=O)NC(=O)C1`, the T/C [7] was 116 % of control, the T/C (endpoint: mean survival time, dose: 25.0 mg/kg/injection, schedule: Q04DX003 (ip), vehicle: water) was 111 % of control and the T/C (endpoint: mean survival time, dose: 32.0 mg/kg/injection, schedule: Q04DX003 (oral), vehicle: saline) was 117 % of control. For the same compound, the T/C [8] was 116 % of control, the T/C (endpoint: mean survival time, dose: 50.0 mg/kg/injection, schedule: Q04DX003 (ip), vehicle: water) was 100 % of control and the T/C (endpoint: mean survival time, dose: 64.0 mg/kg/injection, schedule: Q04DX003 (oral), vehicle: saline) was 151 % of control. The T/C [9] was 115 % of control, the T/C (endpoint: mean survival time, dose: 128.0 mg/kg/injection, schedule: Q04DX003 (oral), vehicle: saline) was 180 % of control and the T/C (endpoint: mean survival time, dose: 256.0 mg/kg/injection, schedule: Q04DX003 (oral), vehicle: saline) was 180 % of control. The T/C [10] was 150 % of control, the T/C (endpoint: mean survival time, dose: 400.0 mg/kg/injection, schedule: Q04DX003 (ip), vehicle: water) was 158 % of control and the T/C (endpoint: mean survival time, dose: 512.0 mg/kg/injection, schedule: Q04DX003 (oral), vehicle: saline) was 155 % of control. For the same compound, the T/C (endpoint: mean survival time, dose: 800.0 mg/kg/injection, schedule: Q04DX003 (ip), vehicle: saline) was 187 % of control, the T/C (endpoint: median survival time, dose: 8.0 mg/kg/injection, schedule: Q01DX009 (sc), vehicle: saline) was 118 % of control and the T/C (endpoint: median survival time, dose: 8.0 mg/kg/injection, schedule: Q03HX008 (ip), vehicle: saline) was 152 % of control. For the same compound, the T/C (endpoint: median survival time, dose: 8.0 mg/kg/injection, schedule: Q03HX016 (ip), vehicle: saline) was 173 % of control, the T/C (endpoint: median survival time, dose: 8.0 mg/kg/injection, schedule: Q03HX024 (ip), vehicle: saline) was 263 % of control and the T/C (endpoint: median survival time, dose: 16.0 mg/kg/injection, schedule: Q01DX009 (sc), vehicle: saline) was 119 % of control. The T/C (endpoint: median survival time, dose: 16.0 mg/kg/injection, schedule: Q03HX008 (ip), vehicle: saline) was 152 % of control, the T/C (endpoint: median survival time, dose: 16.0 mg/kg/injection, schedule: Q03HX016 (ip), vehicle: saline) was 186 % of control and the T/C (endpoint: median survival time, dose: 16.0 mg/kg/injection, schedule: Q03HX024 (ip), vehicle: saline) was 300 % of control. For the same compound, the T/C (endpoint: median survival time, dose: 32.0 mg/kg/injection, schedule: Q03HX008 (ip), vehicle: saline) was 155 % of control, the T/C (endpoint: median survival time, dose: 32.0 mg/kg/injection, schedule: Q03HX016 (ip), vehicle: saline) was 193 % of control and the T/C (endpoint: median survival time, dose: 32.0 mg/kg/injection, schedule: Q03HX024 (ip), vehicle: saline) was 113 % of control. For the same compound, the T/C (endpoint: median survival time, dose: 64.0 mg/kg/injection, schedule: Q01DX001 (ip), vehicle: saline) was 108 % of control, the T/C (endpoint: median survival time, dose: 64.0 mg/kg/injection, schedule: Q01DX009 (sc), vehicle: saline) was 159 % of control and the T/C (endpoint: median survival time, dose: 64.0 mg/kg/injection, schedule: Q03HX008 (ip), vehicle: saline) was 158 % of control. For the same compound, the T/C (endpoint: median survival time, dose: 64.0 mg/kg/injection, schedule: Q03HX024 (ip), vehicle: saline) was 94 % of control, the T/C (endpoint: median survival time, dose: 64.0 mg/kg/injection, schedule: Q04DX003 (ip), vehicle: saline) was 110 % of control and the T/C (endpoint: median survival time, dose: 64.0 mg/kg/injection, schedule: Q04DX003 (sc), vehicle: saline) was 106 % of control. For the same compound, the T/C (endpoint: median survival time, dose: 64.0 mg/kg/injection, schedule: Q08DX002 (ip), vehicle: saline) was 104 % of control, the T/C (endpoint: median survival time, dose: 128.0 mg/kg/injection, schedule: Q01DX001 (ip), vehicle: saline) was 106 % of control and the T/C (endpoint: median survival time, dose: 128.0 mg/kg/injection, schedule: Q03HX008 (ip), vehicle: saline) was 152 % of control. For the same compound, the T/C (endpoint: median survival time, dose: 128.0 mg/kg/injection, schedule: Q03HX016 (ip), vehicle: saline) was 107 % of control, the T/C (endpoint: median survival time, dose: 128.0 mg/kg/injection, schedule: Q03HX024 (ip), vehicle: saline) was 86 % of control and the T/C (endpoint: median survival time, dose: 128.0 mg/kg/injection, schedule: Q04DX003 (ip), vehicle: saline) was 118 % of control. The T/C (endpoint: median survival time, dose: 128.0 mg/kg/injection, schedule: Q04DX003 (sc), vehicle: saline) was 109 % of control, the T/C (endpoint: median survival time, dose: 256.0 mg/kg/injection, schedule: Q01DX001 (ip), vehicle: saline) was 109 % of control and the T/C (endpoint: median survival time, dose: 256.0 mg/kg/injection, schedule: Q04DX003 (ip), vehicle: saline) was 118 % of control. For the same compound, the T/C (endpoint: median survival time, dose: 256.0 mg/kg/injection, schedule: Q08DX002 (ip), vehicle: saline) was 121 % of control, the T/C (endpoint: median survival time, dose: 512.0 mg/kg/injection, schedule: Q01DX001 (ip), vehicle: saline) was 111 % of control and the T/C (endpoint: median survival time, dose: 512.0 mg/kg/injection, schedule: Q04DX003 (sc), vehicle: saline) was 182 % of control. For the same compound, the T/C (endpoint: median survival time, dose: 1024.0 mg/kg/injection, schedule: Q04DX003 (ip), vehicle: saline) was 186 % of control, the T/C (endpoint: median survival time, dose: 1024.0 mg/kg/injection, schedule: Q04DX003 (sc), vehicle: saline) was 236 % of control and the T/C (endpoint: median survival time, dose: 1024.0 mg/kg/injection, schedule: Q08DX002 (ip), vehicle: saline) was 150 % of control.
With `CCNC(Cc1ccccc1)c1ccco1` (centres undefined) the T/C (endpoint: mean survival time, dose: 50.0 mg/kg/injection, schedule: Q01DX009 (ip), vehicle: Klucel (hydroxypropylcellulose) (HPC)) was 109 % of control and the T/C (endpoint: mean survival time, dose: 100.0 mg/kg/injection, schedule: Q01DX009 (ip), vehicle: Klucel (hydroxypropylcellulose) (HPC)) was 104 % of control.
For `O=C(Nc1ccc(C2=NCCN2)cc1)Nc1ccccc1NC(=O)Nc1ccc(C2=NCCN2)cc1`, the T/C (endpoint: mean survival time, dose: 3.12 mg/kg/injection, schedule: Q01DX Z (ip), vehicle: water) was 100 % of control, the T/C (endpoint: mean survival time, dose: 6.25 mg/kg/injection, schedule: Q01DX Z (ip), vehicle: water) was 117 % of control and the T/C (endpoint: mean survival time, dose: 12.5 mg/kg/injection, schedule: Q01DX Z (ip), vehicle: water) was 105 % of control.
With `C(=N/N=C/c1ccccn1)/c1cccnc1` the T/C (endpoint: mean survival time, dose: 100.0 mg/kg/injection, schedule: Q01DX001 (ip), vehicle: carboxymethylcellulose (CMC)) was 94 % of control, the T/C (endpoint: mean survival time, dose: 200.0 mg/kg/injection, schedule: Q01DX001 (ip), vehicle: carboxymethylcellulose (CMC)) was 96 % of control and the T/C (endpoint: mean survival time, dose: 400.0 mg/kg/injection, schedule: Q01DX001 (ip), vehicle: carboxymethylcellulose (CMC)) was 96 % of control.
In the case of `OC(Cc1cc(CC(O)(C(F)(F)F)C(F)(F)F)n(-c2ccccc2)n1)(C(F)(F)F)C(F)(F)F`, the T/C [1] is reported as 97 % of control, the T/C [2] is reported as 97 % of control and the T/C [3] is reported as 95 % of control.
With `O=[N+]([O-])c1cc([N+](=O)[O-])c(Br)cc1F` the T/C (endpoint: mean survival time, dose: 2.5 mg/kg/injection, schedule: Q01DX009 (ip), vehicle: Klucel (hydroxypropylcellulose) (HPC)) was 92 % of control and the T/C (endpoint: mean survival time, dose: 5.0 mg/kg/injection, schedule: Q01DX009 (ip), vehicle: Klucel (hydroxypropylcellulose) (HPC)) was 99 % of control.
With `O=C(NCCF)NC1C(O)OC(CO)C(O)C1O` (centres undefined) the T/C [4] was 102 % of control, the T/C [5] was 101 % of control and the T/C [6] was 98 % of control.
With `Cc1cc(/C=N/N=c2\[nH][nH]/c(=N\N=C\c3cc(C)n(-c4ccccc4)c3C)c3ccccc23)c(C)n1-c1ccccc1` the T/C [11] was 97 % of control, the T/C [4] was 97 % of control and the T/C [5] was 92 % of control. For the same compound, the T/C [6] was 103 % of control.
In the case of `CCC1C(=O)OCc2c1ccn(C)c2=O` (centres undefined), the T/C (endpoint: mean survival time, dose: 25.0 mg/kg/injection, schedule: Q01DX001 (ip), vehicle: saline) is reported as 114 % of control, the T/C [7] is reported as 95 % of control and the T/C [11] is reported as 104 % of control. For the same compound, the T/C [8] was 95 % of control, the T/C [4] was 103 % of control and the T/C [9] was 101 % of control. The T/C [5] was 106 % of control and the T/C [12] was 101 % of control.
With `C#CC(C)(C)OCC(CCl)OC(N)=O` (centres undefined) the T/C [8] was 98 % of control, the T/C [9] was 96 % of control and the T/C [12] was 101 % of control. The T/C [10] was 104 % of control.
